Measured values taken from patent publication US20230407243A1, “GENETIC PLATFORM TO INVESTIGATE THE FUNCTIONS OF BACTERIAL DRUG EFFLUX PUMPS” (priority 2022, published 2023).

How the values were obtained:
Type in all cases: cell-based, Escherichia coli
[1] = test system: EKO-35 araC::mdtEF; assay: MIC susceptibility profiling, efflux platform; conditions: for Fold change of MICs: EKO-35 araC::mdtEF compared to EKO-35
In short: (§1)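 Overnight LB cultures (37 °C, 18 h) were resuspended in PBS pH 7.4 to OD600 ~1.0 and diluted 1/2000 into MHB II. Strains were exposed to 2-fold serial compound dilutions in duplicate for 18 h at 37 °C with shaking. MIC was read from OD600 after subtracting pre-incubation background.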

[2] = test system: EKO-35 araC::acrD; assay: MIC susceptibility profiling, efflux platform; conditions: for Fold change of MICs: EKO-35 araC::acrD compared to EKO-35
In short: as §1

[3] = test system: EKO-35 araC::macAB; assay: MIC susceptibility profiling, efflux platform; conditions: for Fold change of MICs: EKO-35 araC::macAB compared to EKO-35
In short: as §1

[4] = test system: EKO-35 araC::mexCD (MexCD from P. aeruginosa); assay: MIC susceptibility profiling, efflux platform; conditions: for Fold change of MICs: EKO-35 araC::mexCD compared to EKO-35
In short: as §1

[5] = test system: EKO-35 araC::emrKY; assay: MIC susceptibility profiling, efflux platform; conditions: for Fold change of MICs: EKO-35 araC::emrKY compared to EKO-35
In short: as §1

[6] = test system: EKO-35 araC::emrAB; assay: MIC susceptibility profiling, efflux platform; conditions: for Fold change of MICs: EKO-35 araC::emrAB compared to EKO-35
In short: as §1

[7] = test system: EKO-35 araC::acrB; assay: MIC susceptibility profiling, efflux platform; conditions: for Fold change of MICs: EKO-35 araC::acrB compared to EKO-35
In short: as §1

[8] = test system: EKO-35 (empty pCA24N); assay: microbe, parasite or virus in culture; conditions: 0.1 mM IPTG; for MIC, EKO-35 (empty pCA24N), Chlor +: 4 μg/mL chloramphenicol selection; for MIC, EKO-35 (empty pCA24N), Chlor −: no plasmid selection; for MIC: EKO-35 empty pCA24N
[9] = test system: EKO-35 porinated strain expressing acrB; assay: Checkerboard synergy (FICI), porinated strain
In short: (§2)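 Inocula prepared from resuspended colonies were exposed to PAβN or NMP combined with antibiotics in MHB II checkerboards. Growth was scored by OD600 to define MICs. FICI then classified the interaction, with values under 0.5 counted as synergistic.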

[10] = test system: wild-type K-12-Pore; assay: Checkerboard synergy (FICI), porinated strain
In short: as §2

[11] = test system: EKO-35-Pore acrBD408A (functionally inactive AcrB variant); assay: Checkerboard synergy (FICI), porinated strain
In short: as §2

[12] = test system: EKO-35-Pore; assay: Checkerboard synergy (FICI), porinated strain
In short: as §2

[13] = Table 13A, non-porinated, technical duplicate
[14] = Table 13B, non-porinated, technical duplicate
[15] = EKO-35 acrB Pore, NMP + antibiotic
[16] = strain EKO-35 acrB Pore, NMP + antibiotic
[17] = strain K-12 Pore, NMP + antibiotic
[18] = strain EKO-35 acrBD408A Pore, NMP + antibiotic
[19] = strain EKO-35 Pore, NMP + antibiotic

With `N#Cc1ccc(-c2c(NC(=O)C(Cl)Cl)oc(-c3cccs3)c2C#N)cc1` [compound 2] the “Fold change of MICs” value [1] was 1 fold, the “Minimum Inhibitory Concentration, EKO-35 araC::mdtEF” value [1, 13] was 320 µg/mL and the “Fold change of MICs” value [2] was 1 fold. For the same molecule, the “Minimum Inhibitory Concentration, EKO-35 araC::acrD” value [2, 13] was 320 µg/mL, the “Fold change of MICs” value [3] was 1 fold and the “Minimum Inhibitory Concentration, EKO-35 araC::macAB” value [3, 14] was 320 µg/mL. For the same molecule, the “Fold change of MICs” value [4] was 1 fold, the “Minimum Inhibitory Concentration, EKO-35 araC::mexCD” value [4, 14] was 320 µg/mL and the “Fold change of MICs” value [5] was 1 fold. For the same molecule, the “Minimum Inhibitory Concentration, EKO-35 araC::emrKY” value [5, 14] was 320 µg/mL, the “Fold change of MICs” value [6] was 1 fold and the “Minimum Inhibitory Concentration, EKO-35 araC::emrAB” value [6, 14] was 320 µg/mL. The “Fold change of MICs” value [7] was 1 fold, the “Minimum Inhibitory Concentration, EKO-35 araC::acrB” value [7, 13] was 320 µg/mL and the “MIC, EKO-35 (empty pCA24N), Chlor +” value [8] was >5 μg/mL. For the same molecule, the “MIC, EKO-35 (empty pCA24N), Chlor −” value [8] was >5 μg/mL.
In the case of benzalkonium chloride, the “Fold change of MICs” value [1] was 4 fold, the “Minimum Inhibitory Concentration, EKO-35 araC::mdtEF” value [1, 13] was 1.563 µg/mL and the “Fold change of MICs” value [2] was 1 fold. The “Minimum Inhibitory Concentration, EKO-35 araC::acrD” value [2, 13] was 0.391 µg/mL, the “Fold change of MICs” value [3] was 1 fold and the “Minimum Inhibitory Concentration, EKO-35 araC::macAB” value [3, 14] was 0.391 µg/mL. For the same molecule, the “Fold change of MICs” value [4] was 2 fold, the “Minimum Inhibitory Concentration, EKO-35 araC::mexCD” value [4, 14] was 0.781 µg/mL and the “Fold change of MICs” value [5] was 1 fold. The “Minimum Inhibitory Concentration, EKO-35 araC::emrKY” value [5, 14] was 0.391 µg/mL, the “Fold change of MICs” value [6] was 1 fold and the “Minimum Inhibitory Concentration, EKO-35 araC::emrAB” value [6, 14] was 0.391 µg/mL. The “Fold change of MICs” value [7] was 32 fold, the “Minimum Inhibitory Concentration, EKO-35 araC::acrB” value [7, 13] was 12.5 µg/mL and the MIC ([8]; Chlor + (4 μg/mL chloramphenicol)) was 0.781 µg/mL. It also gave an MIC ([8]; Chlor −) of 0.781 µg/mL.
For `Cc1onc(-c2ccccc2)c1C(=O)N[C@@H]1C(=O)N2[C@@H]1SC(C)(C)[C@@H]2C(=O)O` [oxacillin], the Effect [9, 15] was “Synergistic”, the FICI [9, 15] was 0.500 and the Effect ([9]; EKO-35 acrB Pore, PAβN + antibiotic) was “Synergistic”. The “MICb Combined” value ([9]; EKO-35 acrB Pore, antibiotic in combination with PAβN) was 16 µg/mL, the “potentiation of the labelled compound by NMP” value ([9]; porinated strain producing AcrB) was “enhancing the activity” and the Effect [9, 16] was “Synergistic (Synergy (FICI ≤0.5))”. The FICI [9, 16] was 0.500, the “MICb Alone” value ([9]; strain EKO-35 acrB Pore, antibiotic alone) was 64 µg/mL and the “MICb Combined” value ([9]; strain EKO-35 acrB Pore, antibiotic in combination with NMP) was 16 µg/mL. For the same molecule, the Effect ([10]; K-12 Pore, NMP + antibiotic) was “Synergistic”, the FICI ([10]; K-12 Pore, NMP + antibiotic) was 0.266 and the Effect ([10]; K-12 Pore, PAβN + antibiotic) was “Additive”. For the same molecule, the FICI ([10]; K-12 Pore, PAβN + antibiotic) was 0.750, the “MICb Alone” value ([10]; K-12 Pore, antibiotic alone (PAβN checkerboard)) was 32 µg/mL and the “MICb Combined” value ([10]; K-12 Pore, antibiotic in combination with PAβN) was 16 µg/mL. For the same molecule, the Effect [10, 17] was “Synergistic (Synergy (FICI ≤0.5))”, the FICI [10, 17] was 0.266 and the “MICb Alone” value ([10]; strain K-12 Pore, antibiotic alone) was 64 µg/mL. The “MICb Combined” value ([10]; strain K-12 Pore, antibiotic in combination with NMP) was 16 µg/mL, the FICI ([11]; EKO-35 acrBD408A Pore, NMP + antibiotic) was 2.000 and the FICI ([11]; EKO-35 acrBD408A Pore, PAβN + antibiotic) was 1.020. For the same molecule, the “MICb Alone” value ([11]; EKO-35 acrBD408A Pore, antibiotic alone (PAβN checkerboard)) was 0.25 µg/mL, the “MICb Combined” value ([11]; EKO-35 acrBD408A Pore, antibiotic in combination with PAβN) was 0.13 µg/mL and the Effect [11, 18] was “— (indifferent (FICI >1.0))”. For the same molecule, the FICI [11, 18] was 2.000, the “MICb Alone” value ([11]; strain EKO-35 acrBD408A Pore, antibiotic alone) was 0.13 µg/mL and the “MICb Combined” value ([11]; strain EKO-35 acrBD408A Pore, antibiotic in combination with NMP) was 0.13 µg/mL. The Effect ([12]; EKO-35 Pore, NMP + antibiotic) was “Additive”, the FICI ([12]; EKO-35 Pore, NMP + antibiotic) was 0.750 and the FICI ([12]; EKO-35 Pore, PAβN + antibiotic) was 1.020. For the same molecule, the “MICb Alone” value ([12]; EKO-35 Pore, antibiotic alone (PAβN checkerboard)) was 0.25 µg/mL, the “MICb Combined” value ([12]; EKO-35 Pore, antibiotic in combination with PAβN) was 0.13 µg/mL and the “interaction of PAβN in combination with the labelled antibiotic (FICI)” value ([12]; porinated efflux-deficient strains) was “no longer synergistic”. For the same molecule, the Effect [12, 19] was “Additive (additive (FICI >0.5-1.0))”, the FICI [12, 19] was 0.750 and the “MICb Alone” value ([12]; strain EKO-35 Pore, antibiotic alone) was 0.5 µg/mL. The “MICb Combined” value ([12]; strain EKO-35 Pore, antibiotic in combination with NMP) was 0.25 µg/mL, the MIC ([1]; Escherichia coli, Table 13A, non-porinated, technical duplicate, read-out: Minimum Inhibitory Concentration, EKO-35 araC::mdtEF) was 20 µg/mL and the “efflux pump-mediated resistance vs EKO-35” value ([2]; AcrD) was “confirmed”. It also gave an MIC ([2]; Escherichia coli, Table 13A, non-porinated, technical duplicate, read-out: Minimum Inhibitory Concentration, EKO-35 araC::acrD) of 160 µg/mL, an MIC ([3]; Escherichia coli, Table 13B, non-porinated, technical duplicate, read-out: Minimum Inhibitory Concentration, EKO-35 araC::macAB) of 0.625 µg/mL and an MIC ([4]; Table 13B, non-porinated, technical duplicate, read-out: Minimum Inhibitory Concentration, EKO-35 araC::mexCD) of 20 µg/mL. It also gave an MIC ([5]; Escherichia coli, Table 13B, non-porinated, technical duplicate, read-out: Minimum Inhibitory Concentration, EKO-35 araC::emrKY) of 0.625 µg/mL, an MIC ([6]; Escherichia coli, Table 13B, non-porinated, technical duplicate, read-out: Minimum Inhibitory Concentration, EKO-35 araC::emrAB) of 1.25 µg/mL and an MIC ([7]; Escherichia coli, Table 13A, non-porinated, technical duplicate, read-out: Minimum Inhibitory Concentration, EKO-35 araC::acrB) of 160 µg/mL.
In the case of `Cn1cc(Br)c(-c2cccc(NC(=O)Nc3ccc(OC(F)(F)F)cc3)c2)n1` [compound 14], the “Fold change of MICs” value [1] was 1 fold, the “Minimum Inhibitory Concentration, EKO-35 araC::mdtEF” value [1, 13] was 320 µg/mL and the “Fold change of MICs” value [2] was 1 fold. The “Minimum Inhibitory Concentration, EKO-35 araC::acrD” value [2, 13] was 320 µg/mL, the “Fold change of MICs” value [3] was 1 fold and the “Minimum Inhibitory Concentration, EKO-35 araC::macAB” value [3, 14] was 320 µg/mL. The “Fold change of MICs” value [4] was 1 fold, the “Minimum Inhibitory Concentration, EKO-35 araC::mexCD” value [4, 14] was 320 µg/mL and the “Fold change of MICs” value [5] was 1 fold. The “Minimum Inhibitory Concentration, EKO-35 araC::emrKY” value [5, 14] was 320 µg/mL, the “Fold change of MICs” value [6] was 1 fold and the “Minimum Inhibitory Concentration, EKO-35 araC::emrAB” value [6, 14] was 320 µg/mL. For the same molecule, the “Fold change of MICs” value [7] was 1 fold, the “Minimum Inhibitory Concentration, EKO-35 araC::acrB” value [7, 13] was 320 µg/mL and the “MIC, EKO-35 (empty pCA24N), Chlor +” value [8] was >5 μg/mL. For the same molecule, the “MIC, EKO-35 (empty pCA24N), Chlor −” value [8] was >5 μg/mL.
